Laboratory results reported in patent publication US20160289640A1, “MTOR/STAT3 SIGNAL INHIBITOR-TREATED MESENCHYMAL STEM CELL HAVING IMMUNOMODULATORY ACTIVITY, AND CELL THERAPY COMPOSITION COMPRISING SAME, FOR PREVENTING OR TREATING IMMUNE DISORDERS” (THE CATHOLIC UNIVERSITY OF KOREA INDUSTRY-ACADEMIC …, priority 2013, published 2016).
Entries after “also recorded” stand apart in the source; their conditions may differ.

How the values were obtained:
[1] = tested on: adipose tissue-derived mesenchymal stem cells; assay: Cell migration kit analysis (upper/lower chamber, polycarbonate membrane); assay type: cell-based, human
Protocol: For the confirmation of cell migration of the mesenchymal stem cells treated with rapamycin (10 ng/mL), the cells were analyzed using a cell migration kit (Chemicon, Temecula, Calif.). That is, a group with CD4+T cells alone, a group treated with CD4+T cells and rapamycin (10 ng/mL), and a group treated with SDF-1 cells and CD4+T cells were added into the lower chamber, respectively, and the mesenchymal stem cells were added into the upper chamber. Then, for the migration of the adipose tissue-derived mesenchymal stem cells added into the upper chamber into the lower chamber, the cells passed through a polycarbonate membrane were stained and their number was observed by counting.

mesenchymal stem cells [2] = assay: Real time PCR of genes associated with immunomodulatory activity in rapamycin-treated mesenchymal stem cells; assay type: cell-based, human
Protocol: (§1) The mesenchymal stem cells isolated and cultured in <Example 1> were treated with rapamycin, respectively, and the changes in the expression of IDO, IL-10, and TGF-β, which are genes associated with immunomodulatory activity. First, in a condition of 60 mm dish, for the adipose tissue-derived mesenchymal stem cells, the mesenchymal stem cells in the amount of 5 ? 10^5 cells which were treated with 100 nM rapamycin and cultured at 37° C. were used. In particular, the mesenchymal stem cells not treated with rapamycin were used as a control, and the expression level of the genes having immunomodulatory activity in rapamycin-treated mesenchymal stem cells was analyzed using a real time PCR method.

[3] = tested on: mesenchymal stem cells derived from human adipose tissue; assay: Fluorescence microscope analysis of IL-10 and IDO expression in rapamycin-treated mesenchymal stem cells; assay type: cell-based; conditions: FIG. 1b
[4] = tested on: adipose tissue-derived mesenchymal stem cells; assay: Real time PCR of inflammatory factors and tumor factors in rapamycin-treated mesenchymal stem cells; assay type: cell-based; conditions: 100 nM rapamycin, vs group not treated
Protocol: as §1, with “High-mobility group protein B1 (HMGB-1), IL-6,” for “IDO, IL-10,”, “IL-1β,” for “TGF-β,”, “inflammatory factors and tumor factors.” for “immunomodulatory activity.”

mesenchymal stem cells [5] = assay: Flow cytometry of cell phenotype CD markers in rapamycin-treated mesenchymal stem cells; assay type: cell-based
Protocol: The mesenchymal stem cells isolated and cultured in <Example 1> were treated with rapamycin, respectively, and the phenotypes of the mesenchymal stem cells were analyzed. In particular, the mesenchymal stem cells not treated with rapamycin were used as a control, and the expression level of cell markers in the rapamycin-treated mesenchymal stem cells were analyzed via flow cytometry.

[6] = tested on: mesenchymal stem cells derived from human adipose tissues; assay: Formation of autophagic vacuoles observed under electron microscope; assay type: cell-based; conditions: 50 μM rapamycin
Protocol: Meanwhile, autophagy has the effects capable of controlling the beneficial or harmful effects of immunity and inflammation, and preventing autoimmunity and inflammatory diseases, and thus the rapamycin-treated mesenchymal stem cells of the present invention, due to their autophagy, can be more effectively used for the immunity and treatment of inflammatory diseases. As such, the present inventors treated the mesenchymal stem cells with 50 μM rapamycin and the degree of formation of autophagic vacuoles was observed under electron microscope.

[7] = tested on: adipose tissue-derived mesenchymal stem cells; assay: Real-time PCR of autophagy factor markers; assay type: cell-based, human; conditions: 10 ng/mL rapamycin, 12 hours, vs group not treated
Protocol: The adipose tissue-derived mesenchymal stem cells isolated and cultured in Example 1 were treated with 10 ng/mL rapamycin, and 12 hours later, the cells were collected and the total RNA was obtained therefrom. Then, cDNA Synthesis Kit (Roche, Transcriptor First Strand cDNA Synthesis Kit) was prepared based on the RNA. Then, the expression levels of ATG5, LC3A, and LC3B genes, which are autophagy factor markers, were analyzed via real-time PCR using the thus-synthesized cDNA.

[8] = tested on: mTOR signaling pathway in human adipose tissue-derived mesenchymal stem cells; assay: Western blot analysis of mTOR signaling pathway and autophagy proteins; assay type: cell-based
Protocol: The present inventors, in furtherance with the result of <6-1>, performed western blot analysis to examine whether mTOR signaling pathway can be controlled by rapamycin, in the rapamycin-treated mesenchymal stem cells. For this purpose, human adipose tissue-derived mesenchymal stem cells were treated with 10 ng/mL rapamycin, and 1 hour later, the cells were lysed and proteins were extracted therefrom. Then, the extracted proteins were subjected to SDS-PAGE electrophoresis, electrically transferred to a nitrocellulose membrane, blocked with 5% skim milk for 1 hour, reacted by attaching primary antibodies to Beclin1, ATG5, ATG7, LC3I, LC3II, Phospho-mTOR, mTOR, Rictor, and Ractor, and then reacted by attaching secondary antibodies thereto, and photosensitized into Kodak X-ray using the Enhanced Chemiluminescence (ECL), and the expression levels of the proteins of these genes were analyzed (FIG. 6c).

[9] = tested on: adipose tissue-derived mesenchymal stem cell; assay: Real-time PCR of cell migration markers; assay type: cell-based, human; conditions: 50 nM rapamycin, vs group not treated
Protocol: In order to confirm whether adipose tissue-derived mesenchymal stem cell treated with 50 nM rapamycin can migrate into a lesion area due to their cell migration capability, the present inventors analyzed the expression levels of CCR1, CCR2, CCR3, CCR4, CCR7, CCR9, and CXCR4, which are factors associated with the migration of mesenchymal stem cells, via real-time PCR.

[10] = 100 nM rapamycin, 5x10^5 cells, 37° C., real time PCR, vs group not treated
[11] = 10 ng/mL rapamycin, 1 hour, western blot

CO/C1=C\C(C)=C\[C@@H](C)[C@@H](O)[C@@H](C)C/C(C)=C/C=C/[C@H](OC)[C@@H]([C@@H](C)[C@@H](O)[C@H](C)[C@@]2(O)C[C@@H](O)[C@H](C)[C@@H](C(C)C)O2)OC1=O [bafilomycin]
cell migration capability of the rapamycin-treated mesenchymal stem cells ([1]; after treatment with bafilomycin): reduced

CO[C@H]1C[C@@H]2CC[C@@H](C)[C@@](O)(O2)C(=O)C(=O)N2CCCC[C@H]2C(=O)O[C@H]([C@H](C)C[C@@H]2CC[C@@H](O)[C@H](OC)C2)CC(=O)[C@H](C)/C=C(\C)[C@@H](O)[C@@H](OC)C(=O)[C@H](C)C[C@H](C)/C=C/C=C/C=C/1C [rapamycin, (3S,6R,7E,9R,10R,12R,14S,15E,17E,19E,21S,23S,26R,27R,34aS)-9,10,12,13,14,21,22,23,24,25,26,27,32,33,34,34a-hexadecahydro-9,27-dihydroxy-3-[(1R)-2-[(1S,3R,4R)-4-hydroxy-3-methoxycyclohexyl]-1-methylethyl]-10,21-dimethoxy-6,8,12,14,20,26-hexamethyl-23,27-epoxy-3H-pyrido [2,1-c][1,4]-oxaazacyclohentriacontine-1,5,11,28,29 (4H,6H,31H)-pentone]
increase in the expression of IDO (mesenchymal stem cells [2]; [10]): ~5 fold | increase in the expression of IL-10 (mesenchymal stem cells [2]; [10]): ~5 fold | increase in the expression of TGF-β (mesenchymal stem cells [2]; [10]): ~5 fold | increase in TGF-β expression (mesenchymal stem cells [2]; rapamycin-treated mesenchymal stem cells derived from adipose tissue vs not treated with rapamycin): ~30 fold | expression level of IL-10 cytokine [3]: significantly increased | expression of HMGB-1 [4]: significant decrease | expression of IL-1β [4]: significant decrease | expression of IL-6 [4]: significant decrease | expression of CD45 (negative marker) (mesenchymal stem cells [5]): negative | expression of HLA-DR (negative marker) (mesenchymal stem cells [5]): negative | number of autophagic vacuoles [6]: increase | expression level of ATG5 gene [7]: significant increase | expression level of LC3A gene [7]: significant increase | expression level of LC3B gene [7]: significant increase | expression level of ATG5 protein [8, 11]: increase | expression level of ATG7 protein [8, 11]: increase | expression level of Beclin1 protein [8, 11]: increase | expression level of LC3I protein [8, 11]: increase | expression level of LC3II protein [8, 11]: increase | mTOR activation (phosphorylation) [8, 11]: inhibited; also recorded: reduced | expression of Ractor ([8]; rapamycin treatment): decreased | expression of Rictor ([8]; rapamycin treatment): decreased | increase in the expression of CCR1 [9]: ~115 fold | increase in the expression of CCR2 [9]: ~25 fold | increase in the expression of CCR3 [9]: ~70 fold | increase in the expression of CCR4 [9]: ~32 fold | increase in the expression of CCR7 [9]: ~200 fold | increase in the expression of CCR9 [9]: ~150 fold | increase in the expression of CXCR4 [9]: ~60 fold | migration of mesenchymal stem cells ([1]; CD4+T cells and rapamycin (10 ng/mL), vs mesenchymal stem cells not treated with anything): greater migration
